Results: US4808584A, “Quinolinecarboxylic acid derivatives and antibacterial agent containing the same” (Kanebo, Ltd., priority 1987, dated 1989)
Structures can show the parent of a compound that is named as a salt.

How the values were obtained:
ddY male mice = assay: Acute toxicity (LD50); type: in vivo; conditions: oral, ddY male mice fasted for 18 hours, Weil method
Method: The compound (B) of the present invention was dissolved in sterilized distilled water and the solution was orally administered to ddY male mice (5 weeks age, weighing 20 to 25 g, 5 mice in each group), which had been fasted for 18 hours.

E. coli KC-14 = assay: Effect on treatment of infectiousness of the genito-urinary tract; type: in vivo, ICR female mice; conditions: Escherichia coli, KC14, 48 h; E. coli KC-14, 5.6×10^5 CFU/mouse into urinary bladder; oral; not more than 10^4 living bacteria/1 g of kidney regarded as effective
Method: 2. Test microorganism and inoculum size E. coli KC-14 (5.6×10^5 CFU/mouse) 3. Method:
A microorganism solution (0.1 ml) prepared in the same manner as described in Experiment 3 was introduced into urinary bladder through urinary tract of ICR female mice (5 weeks age, weighing 20 to 22 g, 5 mice in each group), and then urinary meatus was clasped with clip for 4 hours to infect the animals. After taking off the clip, the compound (B) of the present invention dissolved in sterilized distilled water or ofloxacin suspended in 0.5% aqueous sodium carboxymethyl cellulose solution was orally administered to mice. Two days after the infection, mice kidneys were taken out and weighed, to which PBS (Dulbecco's phosphate buffered saline) was added and the mixture was homogenized. The homogenate was then diluted with PBS and inoculated onto a plate of modified Drigalski Agar (BTB lactose agar "Nissui", made by Nissui Seiyaku K.K., Japan) and cultured at 37° C. for 18 hours. The number of the colonies of infectious bacteria grown on the plate was counted. The number of living bacteria per 1 g of kidney was calculated from the number of colonies and the kidney weight. The living bacteria number/1 g of kidney of not more than 10^4 was regarded as effective and an effective dose for 50% mice (ED50) was calculated by Weil method.

[1] = tested on: Pseudomonas aeruginosa IFO 3445; assay: Minimum inhibitory concentration (MIC); type: cell-based
Method: (§1) The compounds of the present invention (A, C, E, F, G, H and I) and ofloxacin as control were dissolved in 0.1N aqueous potassium hydroxide to prepare a solution of 5000 μg/ml in concentration. The compounds of the present invention (B, D and J) were dissolved in sterilized distilled water to prepare a solution of 5000 μg/ml in concentration. Each solution was diluted with sterilized distilled water to prepare a standard solution with a concentration of each test compound: 1000 μg/ml. The test was carried out by a method approved by Japan Society of Chemotherapy [cf. Chemotherapy, 29, 76-79 (1981)(TOKYO)].

[2] = tested on: Serratia marcescens IAM 1184; assay: Minimum inhibitory concentration (MIC); type: cell-based
Method: as §1

[3] = tested on: Streptococcus faecalis IID 682; assay: Minimum inhibitory concentration (MIC); type: cell-based
Method: as §1

[4] = tested on: Klebsiella pneumoniae PCI 602; assay: Minimum inhibitory concentration (MIC); type: cell-based; conditions: Klebsiella pneumoniae, PCI602, Klebsiella pneumoniae PCI 602, Gram -; read-out: Minimum inhibitory concentration (MIC)
Method: as §1

[5] = tested on: Pseudomonas aeruginosa E-2; assay: Effect on treatment of general infectious disease; type: in vivo, ddY male mice; conditions: E2, 168 h, P. aeruginosa E-2, 1.6×10^4 CFU/mouse i.p., oral one hour after infection, survival after one week
Method: Pseudomonas aeruginosa E-2 (1.6×10^4 CFU/mouse)
(§2) The test microorganisms were subjected to standing culture in Trypto-Soya Agar "Nissui" (made by Nissui Seiyaku K.K., Japan) at 37° C. for 16 to 18 hours. The culture was then diluted with PBS (Dulbecco's phosphate buffered saline) and mixed with an equivalent amount of 10% (w/v) Mucin (BACTO MUCIN BACTERIOLOGICAL, made by Difco Co.) to prepare a microorganism solution. The thus prepared microorganism solution (0.5 ml each) was intraperitoneally innoculated to ddY male mice (4 weeks age, weighing 20-22 g, 5 mice in each group), to infect the animals. One hour after the infection, the compound (B) of the present invention dissolved in sterilized distilled water or ofloxacin suspended in 0.5% (w/v) aqueous sodium carboxymethyl cellulose solution was orally adiministered to mice.
(§3) The mice were daily observed for one week, and from the survival number of mice after one week, the 50% effective dose (ED50) was calculated by Weil method.

[6] = tested on: Staphylococcus aureus IID 803; assay: Effect on treatment of general infectious disease; type: in vivo, ddY male mice; conditions: IID803, 168 h, S. aureus IID 803, 1.0×10^6 CFU/mouse i.p., oral one hour after infection, survival after one week
Method: Staphylococcus aureus IID 803 (1.0×10^6 CFU/mouse)
as §2, §3

Escherichia coli KC-14 [7] = assay: Effect on treatment of general infectious disease; type: in vivo, ddY male mice; conditions: KC14, 168 h, E. coli KC-14, 1.2×10^4 CFU/mouse i.p., oral one hour after infection, survival after one week
Method: Escherichia coli KC-14 (1.2×10^4 CFU/mouse)
as §2, §3

[8] = tested on: methicillin resistant Staphylococcus aureus; assay: Minimum inhibitory concentration against clinically isolated methicillin resistant Staphylococcus aureus; type: cell-based
Method: The compound (B) was dissolved in sterilized distilled water, and ofloxacin in 0.1N aqueous potassium hydroxide, to prepare a solution of 5000 μg/ml in concentration each. The above solutions were then diluted with sterilized distilled water to prepare a standard solution with a concentration of the test compound: 1000 μg/ml each. The test was carried out by a method approved by Japan Society of Chemotherapy (ibidem) to measure minimum inhibitory concentration (MIC) against 54 strains of clinically isolated methicillin resistant Staphylococcus aureus, from which there were calculated a range of MIC (MICrange) of the test compound against these resistant strains, a minimum concentration for inhibiting the growth of the strains by 50% (MIC50) and a minimum concentration for inhibiting the growth of the strains by 90% (MIC90).

[9] = tested on: Micrococcus luteus ATCC 9341; assay: Minimum inhibitory concentration (MIC); type: cell-based; conditions: ATCC9341; Micrococcus luteus ATCC 9341, Gram +
Method: as §1

[10] = tested on: Escherichia coli NIHJ JC-2; assay: Minimum inhibitory concentration (MIC); type: cell-based; conditions: NIHJJC2; Escherichia coli NIHJ JC-2, Gram -
Method: as §1

[11] = tested on: Morganella morganii IFO 3848; assay: Minimum inhibitory concentration (MIC); type: cell-based; conditions: IFO3848; Morganella morganii IFO 3848, Gram -
Method: as §1

[12] = tested on: Enterobacter aerogenes ATCC 13048; assay: Minimum inhibitory concentration (MIC); type: cell-based; conditions: Klebsiella aerogenes, ATCC13048, Enterobacter aerogenes ATCC 13048, Gram -
Method: as §1

[13] = tested on: Citrobacter freundii NIHJ 10018-68; assay: Minimum inhibitory concentration (MIC); type: cell-based; conditions: NIHJ10018; Citrobacter freundii NIHJ 10018-68, Gram -
Method: as §1

Shigella sonnei EW-33 = assay: Minimum inhibitory concentration (MIC); type: cell-based; conditions: EW33; Shigella sonnei EW-33, Gram -
Method: as §1

[14] = tested on: Staphylococcus epidermidis IAM-1296; assay: Minimum inhibitory concentration (MIC); type: cell-based; conditions: Staphylococcus epidermidis, IAM1296, Staphylococcus epidermidis IAM-1296, Gram +
Method: as §1

Proteus vulgaris OX-19 = assay: Minimum inhibitory concentration (MIC); type: cell-based; conditions: OX19; Proteus vulgaris OX-19, Gram -; read-out: Minimum inhibitory concentration (MIC)
Method: as §1

[15] = tested on: Proteus mirabilis IFO 3849; assay: Minimum inhibitory concentration (MIC); type: cell-based; conditions: IFO3849; Proteus mirabilis IFO 3849, Gram -
Method: as §1

Enterobacter cloacae 963 = assay: Minimum inhibitory concentration (MIC); type: cell-based; conditions: Enterobacter cloacae 963, Gram -
Method: as §1

[16] = tested on: Staphylococcus aureus FDA 209P JC-1; assay: Minimum inhibitory concentration (MIC); type: cell-based; conditions: FDA209P; Staphylococcus aureus FDA 209P JC-1, Gram +
Method: as §1

Escherichia coli KC-14 [17] = assay: Minimum inhibitory concentration (MIC); type: cell-based; conditions: KC14; Escherichia coli KC-14, Gram -
Method: as §1

[18] = tested on: Salmonella typhimurium IID 971; assay: Minimum inhibitory concentration (MIC); type: cell-based; conditions: Salmonella enterica, read-out: Minimum inhibitory concentration (MIC)
Method: as §1

[19] = tested on: Bacillus subtilis ATCC 6633; assay: Minimum inhibitory concentration (MIC); type: cell-based; conditions: ATCC6633; Bacillus subtilis ATCC 6633, Gram +; read-out: Minimum inhibitory concentration (MIC)
Method: as §1

[20] = tested on: Acinetobacter calcoaceticus AC 54; assay: Minimum inhibitory concentration (MIC); type: cell-based; conditions: Acinetobacter calcoaceticus, AC54, Acinetobacter calcoaceticus AC 54, Gram -
Method: as §1

[21] = tested on: Pseudomonas aeruginosa E-2; assay: Minimum inhibitory concentration (MIC); type: cell-based; conditions: E2; Pseudomonas aeruginosa E-2, Gram -
Method: as §1

[22] = tested on: Staphylococcus aureus IID 803; assay: Minimum inhibitory concentration (MIC); type: cell-based; conditions: IID803; Staphylococcus aureus IID 803, Gram +; read-out: Minimum inhibitory concentration (MIC)
Method: as §1

[23] = tested on: Pseudomonas aeruginosa NCTC 10490; assay: Minimum inhibitory concentration (MIC); type: cell-based; conditions: Pseudomonas aeruginosa, NCTC10490, Pseudomonas aeruginosa NCTC 10490, Gram -
Method: as §1

For `CN1CCN(c2c(F)cc3c(=O)c(C(=O)O)c4scc5n4c3c2OC5)CC1` [Compound (B), 9,1-Epoxymethano-7-fluoro-8-(4-methyl-1-piperazinyl)-5-oxo-5H-thiazolo[3,2-a]quinoline-4-carboxylic acid.hydrochloride], which LD50 (ddY male mice) is on record?
The LD50 was 1231 mg/kg.

And the ED50 (E. coli KC-14)?
Its ED50 is 21.7 mg/kg.

What about the “Minimum inhibitory concentration (MIC)” value ([1]; Pseudomonas aeruginosa IFO 3445, Gram -) of the same compound?
Its value is 1.56 µg/mL.

What about the “Minimum inhibitory concentration (MIC)” value ([2]; Serratia marcescens IAM 1184, Gram -) of the same compound?
Its value is 0.39 µg/mL.

And the “Minimum inhibitory concentration (MIC)” value ([3]; Streptococcus faecalis IID 682, Gram +)?
The value was 0.78 µg/mL.

What about the MIC [4] of the same compound?
Its MIC is 0.025 µg/mL.

What about the ED50 [5] of the same compound?
The ED50 was 17.7 mg/kg.

What about the ED50 [6] of the same compound?
The ED50 was 8.1 mg/kg.

And the ED50 (Escherichia coli KC-14 [7])?
Its ED50 is 1 mg/kg.

What about the MIC ([8]; 54 strains of clinically isolated methicillin resistant Staphylococcus aureus) of the same compound?
The MIC was 0.1 to 0.39 µg/mL.

What about the MIC50 ([8]; Staphylococcus aureus, minimum concentration for inhibiting the growth of the strains by 50%, 54 strains) of the same compound?
Its MIC50 is 0.2 µg/mL.

What about the MIC90 ([8]; Staphylococcus aureus, minimum concentration for inhibiting the growth of the strains by 90%, 54 strains) of the same compound?
Its MIC90 is 0.2 µg/mL.

`CCN1CCN(c2c(F)cc3c(=O)c(C(=O)O)c4scc5n4c3c2OC5)CC1` [Compound (J), 9,1-Epoxymethano-7-fluoro-8-(4-ethyl-1-piperazinyl)-5-oxo-5H-thiazolo[3,2-a]quinoline-4-carboxylic acid.hydrochloride.1/2hydrate] was tested. Which MIC [9] did it give?
Its MIC is 3.13 µg/mL.

And the MIC [10]?
Its MIC is 0.1 µg/mL.

And the MIC [11]?
The MIC was 0.1 µg/mL.

And the MIC [12]?
Its MIC is 0.1 µg/mL.

And the MIC [13]?
Its MIC is 0.39 µg/mL.

And the MIC (Shigella sonnei EW-33)?
The MIC was 0.1 µg/mL.

And the MIC ([1]; Pseudomonas aeruginosa, IFO3445, Pseudomonas aeruginosa IFO 3445, Gram -)?
Its MIC is 3.13 µg/mL.

What about the MIC [14] of the same compound?
The MIC was 0.39 µg/mL.

And the MIC (Proteus vulgaris OX-19)?
The MIC was 0.05 µg/mL.

And the MIC ([2]; Serratia marcescens, IAM1184, Serratia marcescens IAM 1184, Gram -)?
The MIC was 0.39 µg/mL.

What about the MIC [15] of the same compound?
The MIC was 0.39 µg/mL.

And the MIC (Enterobacter cloacae 963)?
The MIC was 0.1 µg/mL.

What about the MIC ([3]; Enterococcus faecalis, IID682, Streptococcus faecalis IID 682, Gram +) of the same compound?
The MIC was 0.78 µg/mL.

And the MIC [16]?
Its MIC is 0.2 µg/mL.

What about the MIC [4] of the same compound?
The MIC was 0.025 µg/mL.

And the MIC (Escherichia coli KC-14 [17])?
The MIC was 0.1 µg/mL.

What about the MIC [18] of the same compound?
Its MIC is 0.05 µg/mL.

And the MIC [19]?
Its MIC is 0.1 µg/mL.

What about the MIC [20] of the same compound?
Its MIC is 0.1 µg/mL.

What about the MIC [21] of the same compound?
The MIC was 1.56 µg/mL.

What about the MIC [22] of the same compound?
The MIC was 0.2 µg/mL.

And the MIC [23]?
The MIC was 0.78 µg/mL.
